Results taken from ChEMBL document CHEMBL4406802, “Human disorders associated with inflammation and the evolving role of natural products to overcome” (Eur J Med Chem, 2019).
In brackets after ≈: the same amount, converted by molar mass. Values belong to the molecule of their own block, whether it stands above or below them.

Tests used:
THP-1 [1] = experiment: Antiinflammatory activity against human THP1 cells assessed as inhibition of LPS induced TNF-alpha at 100 uM preincubated for 30 mins followed by LPS stimulation measured after 24 hrs by ELISA relative to control; assay type: functional
[2] = target: T1, Prostaglandin G/H synthase 2 (Homo sapiens) (UniProt P35354); experiment: Inhibition of COX2 (unknown origin) at 20 uM relative to control
T1 sequence (whole entry): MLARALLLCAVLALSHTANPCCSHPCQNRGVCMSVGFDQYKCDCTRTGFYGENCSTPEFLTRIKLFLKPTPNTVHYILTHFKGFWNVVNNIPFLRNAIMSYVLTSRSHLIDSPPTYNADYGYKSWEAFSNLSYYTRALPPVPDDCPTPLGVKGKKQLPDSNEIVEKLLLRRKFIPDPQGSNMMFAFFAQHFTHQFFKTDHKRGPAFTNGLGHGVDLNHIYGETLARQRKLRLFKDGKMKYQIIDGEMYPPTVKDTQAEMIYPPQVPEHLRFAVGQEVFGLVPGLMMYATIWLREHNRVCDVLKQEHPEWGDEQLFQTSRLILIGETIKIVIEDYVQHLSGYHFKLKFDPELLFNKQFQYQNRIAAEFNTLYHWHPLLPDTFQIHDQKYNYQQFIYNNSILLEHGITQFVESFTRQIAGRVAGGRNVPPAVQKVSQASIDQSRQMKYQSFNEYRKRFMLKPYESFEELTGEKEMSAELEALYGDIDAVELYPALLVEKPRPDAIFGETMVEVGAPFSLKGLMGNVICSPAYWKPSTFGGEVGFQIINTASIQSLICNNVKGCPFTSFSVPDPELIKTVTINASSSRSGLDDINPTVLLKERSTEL

[3] = Inhibition of soybean 15-LOX using linoleic acid as substrate preincubated for 5 mins followed by substrate addition and measured after 20 mins by spectrophotometric analysis; set-up: species or system Glycine max
[4] = target: T2, Polyunsaturated fatty acid 5-lipoxygenase (Homo sapiens) (UniProt P09917); experiment: Inhibition of 5-lox (unknown origin) at 20 uM relative to control
T2 sequence (whole entry): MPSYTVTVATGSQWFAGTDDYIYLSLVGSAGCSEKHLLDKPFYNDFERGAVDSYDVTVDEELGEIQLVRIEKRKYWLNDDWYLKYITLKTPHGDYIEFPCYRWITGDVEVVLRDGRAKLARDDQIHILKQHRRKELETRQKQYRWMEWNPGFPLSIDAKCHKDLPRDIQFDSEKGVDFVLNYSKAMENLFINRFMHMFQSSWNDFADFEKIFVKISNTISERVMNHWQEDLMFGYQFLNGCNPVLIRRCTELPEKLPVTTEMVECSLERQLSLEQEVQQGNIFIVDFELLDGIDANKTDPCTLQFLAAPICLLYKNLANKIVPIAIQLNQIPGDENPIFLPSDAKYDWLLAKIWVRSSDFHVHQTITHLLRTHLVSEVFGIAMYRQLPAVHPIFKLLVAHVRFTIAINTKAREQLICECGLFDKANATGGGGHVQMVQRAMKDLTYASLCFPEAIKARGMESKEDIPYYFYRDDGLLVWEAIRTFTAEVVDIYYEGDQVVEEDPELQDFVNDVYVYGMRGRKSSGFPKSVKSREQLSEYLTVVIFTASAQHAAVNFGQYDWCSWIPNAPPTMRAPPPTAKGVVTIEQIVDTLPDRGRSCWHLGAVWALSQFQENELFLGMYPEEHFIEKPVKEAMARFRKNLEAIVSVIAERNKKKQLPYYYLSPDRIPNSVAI

RAW264.7 [5] = experiment: Antiinflammatory activity in mouse RAW264.7 cells assessed as inhibition of nitric oxide production; assay type: functional, cell-based
RAW264.7 [6] = experiment: Antiinflammatory activity in mouse RAW264.7 cells assessed as inhibition of LPS-induced nitric oxide production at […] after 24 hrs by Griess reagent based assay relative to control; assay type: functional; set-up: dose or concentration left out as unconfirmed; details: RAW264.7, 24 h
RAW264.7 [7] = experiment: Antiinflammatory activity against mouse RAW264.7 cells assessed as inhibition of LPS induced iNOS at 30 uM preincubated for 1 hr followed by LPS stimulation measured after 18 hrs relative to control; assay type: functional
RAW264.7 [8] = experiment: Antiinflammatory activity against mouse RAW264.7 cells assessed as inhibition of LPS induced COX2 at 30 uM preincubated for 1 hr followed by LPS stimulation measured after 18 hrs relative to control; assay type: functional
THP-1 [9] = experiment: Antiinflammatory activity against human THP1 cells assessed as inhibition of LPS induced TNF-alpha at 40 uM preincubated for 30 mins followed by LPS stimulation measured after 24 hrs by ELISA relative to control; assay type: functional
[10] = target: T3, Prostaglandin G/H synthase 2 (Ovis aries, UniProt P79208); experiment: Inhibition of ovine COX2 using arachidonic acid as substrate by enzyme immunoassay
T3 sequence (P79208 whole entry): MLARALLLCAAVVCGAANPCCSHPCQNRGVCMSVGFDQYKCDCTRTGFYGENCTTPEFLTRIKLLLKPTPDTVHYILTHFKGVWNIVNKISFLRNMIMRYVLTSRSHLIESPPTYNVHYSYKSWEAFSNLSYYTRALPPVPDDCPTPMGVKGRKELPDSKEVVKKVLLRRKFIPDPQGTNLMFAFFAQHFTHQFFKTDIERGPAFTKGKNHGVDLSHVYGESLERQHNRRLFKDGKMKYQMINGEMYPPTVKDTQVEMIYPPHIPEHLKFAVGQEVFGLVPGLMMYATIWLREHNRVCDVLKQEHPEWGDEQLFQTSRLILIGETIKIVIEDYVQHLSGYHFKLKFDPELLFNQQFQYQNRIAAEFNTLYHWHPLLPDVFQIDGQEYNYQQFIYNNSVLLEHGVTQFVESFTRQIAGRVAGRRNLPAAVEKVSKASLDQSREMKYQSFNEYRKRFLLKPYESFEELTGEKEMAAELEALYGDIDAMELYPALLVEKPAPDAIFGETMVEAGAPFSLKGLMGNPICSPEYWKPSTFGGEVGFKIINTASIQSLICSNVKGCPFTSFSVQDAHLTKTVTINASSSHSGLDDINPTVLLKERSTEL

[11] = target: T1, Prostaglandin G/H synthase 2 (Homo sapiens); experiment: Inhibition of N-terminal His6-tagged recombinant human COX2 expressed in baculovirus infected sf21 cells at 20 uM relative to control
[12] = target: Nitric oxide synthase, inducible (Homo sapiens, UniProt P35228); experiment: Inhibition of iNOS (unknown origin) at 20 uM relative to control
Chain of Nitric oxide synthase, inducible (P35228 whole entry): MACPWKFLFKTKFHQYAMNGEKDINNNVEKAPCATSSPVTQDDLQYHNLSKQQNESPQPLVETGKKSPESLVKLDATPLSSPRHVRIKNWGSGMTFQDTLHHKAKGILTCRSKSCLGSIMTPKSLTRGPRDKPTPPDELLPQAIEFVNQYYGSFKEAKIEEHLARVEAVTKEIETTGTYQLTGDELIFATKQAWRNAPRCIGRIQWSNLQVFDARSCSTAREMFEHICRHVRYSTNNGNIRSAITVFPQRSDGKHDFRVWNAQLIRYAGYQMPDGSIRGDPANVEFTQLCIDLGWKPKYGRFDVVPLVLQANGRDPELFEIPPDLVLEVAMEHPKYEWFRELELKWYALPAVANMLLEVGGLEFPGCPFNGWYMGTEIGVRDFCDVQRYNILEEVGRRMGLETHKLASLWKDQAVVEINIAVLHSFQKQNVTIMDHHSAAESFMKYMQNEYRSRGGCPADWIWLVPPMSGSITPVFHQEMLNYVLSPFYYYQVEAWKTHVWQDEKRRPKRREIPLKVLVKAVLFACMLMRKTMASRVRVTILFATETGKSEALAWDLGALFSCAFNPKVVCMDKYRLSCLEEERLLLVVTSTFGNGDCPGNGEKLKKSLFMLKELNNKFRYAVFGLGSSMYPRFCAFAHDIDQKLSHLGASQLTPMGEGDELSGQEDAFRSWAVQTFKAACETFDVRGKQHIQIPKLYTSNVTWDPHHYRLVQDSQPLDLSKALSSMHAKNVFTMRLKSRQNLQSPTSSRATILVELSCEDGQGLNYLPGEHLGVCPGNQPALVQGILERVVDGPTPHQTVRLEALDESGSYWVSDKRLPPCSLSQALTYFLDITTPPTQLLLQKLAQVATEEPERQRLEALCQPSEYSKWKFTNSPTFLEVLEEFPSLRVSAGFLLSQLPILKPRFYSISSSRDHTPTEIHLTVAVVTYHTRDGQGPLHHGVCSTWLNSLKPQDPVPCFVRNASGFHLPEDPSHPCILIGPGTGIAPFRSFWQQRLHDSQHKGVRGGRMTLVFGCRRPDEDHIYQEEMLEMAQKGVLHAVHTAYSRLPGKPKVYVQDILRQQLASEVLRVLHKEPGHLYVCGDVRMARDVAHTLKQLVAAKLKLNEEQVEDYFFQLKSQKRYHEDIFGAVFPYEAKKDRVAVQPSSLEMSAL

SMILES: C[C@@H]1O[C@@H](Oc2c(-c3cc(O)c(O)c(O)c3)oc3cc(O)cc(O)c3c2=O)[C@H](O)[C@H](O)[C@H]1O
inhibition at 100 µM (THP-1 [1]): 19.5%

SMILES: C=C(C)[C@H](CC=C(C)C)C[C@]12C[C@H](CC=C(C)C)C(C)(C)[C@](CC=C(C)C)(C(=O)C(C(=O)c3ccc(O)c(O)c3)=C1O)C2=O
IC50 [3]: 0.04305 µg/mL (≈ 0.0714 µM)

SMILES: O=c1c2cc(O)c(O)cc2oc2cc(O)cc(O)c12
IC50 [3]: 0.04461 µg/mL (≈ 0.171 µM) | inhibition (RAW264.7 [6]): 70.8%

SMILES: CC1(C)CC[C@]2(C(=O)O[C@@H]3O[C@H](CO)[C@@H](O)[C@H](O)[C@H]3O)CC[C@]3(C)C(=CC[C@@H]4[C@@]5(C)CC[C@H](O[C@@H]6OC[C@@H](O)[C@H](O)[C@H]6O[C@@H]6O[C@H](CO)[C@@H](O)[C@H](O)[C@H]6O)C(C)(C)[C@@H]5CC[C@]43C)[C@@H]2C1
inhibition at 30 µM (RAW264.7 [7]): 88% | inhibition at 30 µM (RAW264.7 [8]): 54.6%

SMILES: COc1c(O)cc2c(=O)oc3c(OC)c(O[C@@H]4O[C@H](CO)[C@@H](O)[C@H](O)[C@H]4O)cc4c(=O)oc1c2c34
inhibition at 40 µM (THP-1 [9]): 47.8%

SMILES: CCOC(=O)[C@H](CO)NC(=O)c1cccc(O)c1O
IC50 [10]: 2.8 µM

SMILES: C=C1[C@@H]2[C@H]3OC(=O)C(=C)[C@@H]3CCC(=C)[C@@H]2C[C@@H]1O
inhibition [11]: 97% | inhibition [12]: 99.4%

Continued, values first:

inhibition [2]: 16.6%
SMILES: CCCCCC(=O)/C=C/C=C\CCCCCCCC(=O)O

inhibition [4]: 16.1%
SMILES: COc1cc(C2Oc3cc(/C=C/COC(=O)CC(C)C)cc(OC)c3OC2COC(=O)CC(C)C)cc(OC)c1O (stereo not drawn)

IC50 (RAW264.7 [5]): 51.9 µM
SMILES: COc1cc2c(cc1C)C1=C(C)C(=O)OC1C(O)C2C (stereo not drawn)
